These results are taken from patent publication US10391168B1, “Anti-CD70 combination therapy” (University of Bern, priority 2014, dated 2019).

One data set relates to KBM5r cells. As to the kind of experiment: miR-29 expression and anti-miR silencing in KBM5r cells (qRT-PCR). It counts as cell-based, human. As to conditions: imatinib 1 μM, nilotinib 1 μM, ponatinib 0.1 μM; 72 h.
The subject of data set [1] is CD34+ stem/progenitor cells from healthy donors. The experiment in a line: Growth and colony formation of CD34+ stem/progenitor cells from BM of healthy donors. Format: cell-based, human. As to conditions: anti-CD70 mAb 10 μg/ml, imatinib 1 μM, alone or combined; 7 or 14 days.
The test system of data set [2] is CD34+ stem/progenitor cells from newly diagnosed CML patients. As to the kind of experiment: Expression in FACS-sorted CD34+ CML stem/progenitor cells cultured ex vivo. As to conditions: imatinib 1 μM, 7 days.
Data set [3] relates to human CD34+ CML stem/progenitor cells. The experiment in a line: Liquid culture of primary human CD34+ CML stem/progenitor cells: cell numbers, BrdU, viability. Format: cell-based. As to conditions: 7 days; anti-CD70 mAb 10 μg/ml, imatinib 1 μM, alone or combined.
A further data set can be described thus: in vivo. As to conditions: NSG, mouse, plasma, oral, 50 mg/kg.
Data set [4] has as its system human CD34+ CML stem/progenitor cells. The experiment in a line: Murine xenograft CML model: human CML cells in BM of NSG mice. Format: in vivo. A general note: In xenograft studies the graft and the host belong to different species.
Another data set relates to SD-1 cells. As to the kind of experiment: Chou-Talalay drug combination study, growth inhibition of SD-1 cells (cell numbers after 72 h).
For data set [5], the system named is human CD34+ CML stem/progenitor cells. The experiment in a line: Expression in human CML cells ex vivo from xenografted NSG mice. As to conditions: imatinib 50 mg/kg daily, 2 weeks. The source says: (g-l) CD70 (g), SP1 (h), DNMT1 mRNA (i), and miR-29 expression (j-l) (qRT-PCR) in CD34^+ cells. (n-m) Correlation of CD70 expression with the expression of selected Wnt target genes RUNX1 (m) and WISP1 (n) in CD34^+ stem/progenitor cells from newly diagnosed chronic phase CML patients. Expression data are derived from a public repository for microarray data and are available under accession number E-MEXP-480 (EMBL EBI Arrayexpress). […] Statistics: (c-e), one-way ANOVA; (f-l), Student's t test; (m) and (n), Spearman correlation.
(p-r) CD70 and CD27 expression were determined on primary human CML cells. […] After 2 weeks of treatment, mice were euthanized and CML cells were analyzed for the expression of CD70 and CD27 by FACS. […] (p-q) red lines, CD70 and CD27 antibodies; blue lines, respective isotype controls.

Data set [6] deals with CD70 promoter in KBM5r cells. The experiment in a line: DNA methylation analysis of the CD70 promoter by bisulfite sequencing. Format: cell-based, human. As to conditions: ponatinib 0.1 μM or azacytidine 1 μM, vs vehicle. On the procedure: The methylation profile of the SP1 transcription factor binding sites within the KBM5r cell CD70 promoter was analyzed by bisulfite sequencing after treatment of KBM5r cells with either a control, ponatinib (0.1 μM) or azacytidine (1 μM).
Bisulfite conversion of the isolated DNA samples from both KBM5 and KBM5r cells were assessed using the Epitect® Bisulfite Kit (Qiagen) according to the manufacturer's protocol. The promoter region covering binding sites for important transcription factors were selectively amplified using the following primers: forward primer (−227˜−205): 5′-[…]-3′ (SEQ ID NO.: 9); reverse primer (+14˜+35): 5′-[…]-3′(SEQ ID NO.: 10). For the amplification of bisulfite-treated genomic DNA (gDNA), the following PCR conditions were used: 1×: 95° C. for 10 min; 40×: 95° C. for 30 s, 58° C. for 40 s, 72° C. for 1 min; 1×72° C. for 5 min. The PCR cocktail was: 3 μl of DNA (of at least 10 ng/μL DNA for a final concentration of […]) in a 25 μl total volume using 0.5 pmol of each primer, 200 μM dNTPs, 0.2 U Hot Start Taq DNA polymerase, 1.5 mM MgCl2 and the buffer supplied with the enzyme. The amplified promoter region were gel-purified and subjected for fluorescent Sanger sequencing. The relative quantification of the methylated allele (C) versus unmethylated allele (T) was assessed by the QSVAnalyser software. […]

For data set [7], the system named is imatinib-resistant KBM5r cells (BCR-ABL1 T315I). As to the kind of experiment: CD70, SP1, DNMT1 expression and viability in imatinib-resistant KBM5r cells. Format: cell-based, human. On the procedure:
Specifically, 5×10^4 KBM5r cells were transduced overnight at 37° C. and 5% CO2 with 2×10^5 infectious units of shSP1 or the respective control lentiviral particles having scrambled RNA (Santa Cruz Biotechnology Inc.) in the presence of 5 μg/ml polybrene (Sigma-Aldrich) according to the manufacturer's instructions. After 18 hours, medium was removed, and cells were cultured in medium supplemented with 1 μg/ml puromycin to select for stable expression of shSP1 or scrambled RNA.
KBM5r cells (1×10^5) stably transduced with shSP1 (shSP1), or the respective control scrambled RNA lentiviral particles (scr), were then cultured for 72 hours in the presence of vehicle or ponatinib (po; 0.1 μM). Treated cells were tested for MFI of CD70 protein expression (FACS) (FIG. 1, q), CD70 (FIG. 1, r) and SP1 (Figure, 1 s) mRNA expression (qRT-PCR).
In a first experiment, 1×10^5 KBM5r cells were cultured in the presence of vehicle, ponatinib (po, 0.1 μM), lithium chloride (li, […]), or both in combination (po/li) for 24 h (FIG. 2, A-C). In a second experiment, 1×10^5 KBM5r cells were cultured in the presence of vehicle, ponatinib (po, 0.1 μM), R-Spondin 1 (R, 10 ng/ml), or both in combination (po/R) for 72 h (FIG. 2, D-E).

The mark [8] stands for this setting: 72 h, imatinib 1 μM, ponatinib 0.1 μM.

With `Cc1ccc(NC(=O)c2ccc(CN3CCN(C)CC3)cc2)cc1Nc1nccc(-c2cccnc2)n1` [imatinib], in the data set on KBM5r cells, the “miR-29a, miR-29b, miR-29c expression” value was “did not affect miR-29s”. In addition, the “growth and colony formation of healthy donor CD34+ cells” value in [1] is “only marginally affected”. The CD70 protein expression result in [2] is reported as “increased CD70 protein expression”. The “Dnmt 1 mRNA expression” value in data set [2] is “down-regulated”. For the same molecule, the “Dnmt3a mRNA expression” value in data set [2] is “down-regulated”. For the same molecule, the “SP1 mRNA expression” value in data set [2] is given as “increased”. Moreover, in data set [3], the “cell proliferation (BrdU)” value is “reduced cell proliferation”. Moreover, in data set [3], the “cell viability / cell death” value is on record as “induced cell death”. Also, in data set [3], the “growth (cell numbers)” value was “inhibited growth and proliferation”. Also, the concentration at 2 weeks in “in vivo” is around 1 µM. Moreover, the “frequencies and absolute numbers of CD45+CD33+ leukemia cells and CD34+ CML stem/progenitor cells in BM” value in data set [4] (cells of patients 3, 4 and 5, 2 weeks of treatment) was “reduced cell frequencies and absolute numbers”. Moreover, the “eradication of CD34+ CML stem/progenitor cells in BM (NSG mice eradicated of treated)” value in data set [4] (patient 4 cells, 2 weeks of treatment) was “neither imatinib nor anti-CD70 mAb treatment alone eliminated all the CD34+ CML cells”. Besides, the “CD45+CD33+ CML myeloid cell frequencies and absolute numbers in BM” value in data set [4] (patient 4 cells, imatinib 50 mg/kg daily p.o., anti-CD70 mAb 10 mg/kg i.p. every 3rd day, 2 weeks) is given as “significantly reduced”. For the same molecule, the “Fa (fraction affected), imatinib” value is recorded as 0.001 with SD-1 cells (imatinib 0.02 μM); 0.040 with SD-1 cells (imatinib 0.04 μM); 0.149 with SD-1 cells (imatinib 0.08 μM); 0.201 in the data set with SD-1 cells (imatinib 0.16 μM); 0.243 in the data set with SD-1 cells (imatinib 0.32 μM); 0.351 in the data set with SD-1 cells (imatinib 0.64 μM). For the same molecule, the “Fa (fraction affected), imatinib” value in the data set on SD-1 cells (imatinib 1.28 μM) turned out to be 0.432; in the data set on SD-1 cells (imatinib 2.55 μM), 0.527; with SD-1 cells (imatinib 5.10 μM) it was 0.689; in the data set on SD-1 cells (imatinib 10.20 μM) it was 0.791. For the same molecule, in [5], the CD27 expression entry is on record as “remained unchanged”. Further, the “CD70 expression on CD34+ CML stem/progenitor cells” value in [5] is given as “specifically increased CD70 expression on CD34+ CML stem/progenitor cells”. In addition, the “DNMT1 and miR-29a, miR-29b, miR-29c expression in CD34+ CML stem/progenitor cells” value in data set [5] was “decreased the expression of DNMT1 and miR-29a, miR-29b, and miR-29c”. In addition, in data set [5], the “SP1 expression in CD34+ CML stem/progenitor cells” value was “up-regulation of SP1”.
As to `Cc1ccc(C(=O)Nc2ccc(CN3CCN(C)CC3)c(C(F)(F)F)c2)cc1C#Cc1cnc2cccnn12` [ponatinib], the “miR-29a, miR-29b, miR-29c expression” value in the data set with KBM5r cells is listed as “down-regulation of all three miR-29s”. Also, the “CD70 promoter DNA methylation” value in data set [6] was “significantly reduced CD70 promoter DNA methylation”. In [7] (setting [8]), the “CD70 mRNA expression” value was “induced”, the “Dnmt 1 mRNA expression” value is given as “down-regulated Dnmt1 mRNA” and the “SP1 mRNA expression” value is recorded as “up-regulated SP1”. The “CD70 protein expression (FACS)” value in [7] (72 h, therapeutic concentration (imatinib 1 μM, ponatinib 0.1 μM)) was “induced CD70 protein expression”. Moreover, in data set [7] (ponatinib 0.1 μM, 16 h), the “CD70 protein expression (MFI) early after treatment” value is “already up-regulated after 16 hours” and the “cell death (Annexin-V/7-AAD FACS)” value is reported as “did not induce substantial cell death”. Also, the “CD70 expression in SP1 knockdown (shSP1) KBM5r cells” value in data set [7] (ponatinib 0.1 μM, 72 h, vs scrambled control RNA cells) is listed as “did not up-regulate CD70”.
